Experimental data: US20230121313A1 (priority 2019, published 2023)
Like-named read-outs stand apart in the source and are kept apart here. Marks after values point to notes of the source that are not given here.

Legend:
[1] = for QC sample long-term storage stability: human plasma QC sample at −20° C.; for QC sample bench-top stability: human plasma QC sample; for QC sample bench-top stability / Processed sample stability: room temperature; for Stock solution stability (spike solutions): ketamine/norketamine spike solutions at −20° C.; for Whole Blood Stability: room temperature and in an ice-water bath (0-4° C.)
Experimental: This example provides an LC-MS/MS method for the determination of ketamine and norketamine in sodium heparin human plasma using ketamine-d4 and norketamine-d4 as the respective internal standards (IS).
Retention time and peak area were determined by Analyst® Data Acquisition/Processing Software (Version 1.4.2). Analyte concentrations were obtained from a calibration curve constructed by plotting the peak area ratio versus the concentration using Watson LIMS (Version 7.3). Watson LIMS and Microsoft Office Excel were used for statistical calculations. When Office Excel was used the calculations were 100% audited. Concentrations were calculated using linear regression according to the following equation: […]
Selectivity is defined as the ability of a chromatographic method to measure a response from the analyte without interference from the biological matrix. This was accomplished by evaluating six individual lots of human plasma prepared as blank and at the lower limit of quantitation (LLOQ, 0.500 ng/mL).
The matrix effect is defined as the suppression or enhancement of ionization of analytes by the presence of matrix components in the biological samples. See, e.g., C. T. Viswanathan, “Quantitative Bioanalytical Methods Validation and Implementation: Best Practices for Chromatographic and Ligand Binding Assays,” Pharmaceutical Research, Vol. 24, No. 10, October 2007, p. 1969. The matrix effect was evaluated by extracting single replicates of six lots of blank human plasma and spiking each lot at the Low and High QC concentration levels (1.50 ng/mL and 375 ng/mL) post extraction. The area ratios of the six lots of post-extraction spiked plasma samples were compared to the mean area ratio obtained from three replicates of the neat solution prepared at the same concentration level in purified water.
The linearity of the method was evaluated at a linear range of 0.500/0.500-500/500 ng/mL for ketamine/norketamine in human plasma. Linear regression (with a weighting factor of 1/x2) was used to produce the best fit for the concentration-detector response relationship for ketamine and norketamine in human plasma.
The validation was conducted with a target LLOQ of 0.500 ng/mL for ketamine and norketamine in human plasma. To evaluate the sensitivity, six QC samples prepared at the LLOQ were analyzed during three individual batch runs as part of the intra-run and inter-run accuracy and precision for the method. The concentrations were calculated with the calibration curve.
The intra-run and inter-run accuracy and precision of the method were investigated at four different QC concentration levels (0.500 ng/mL (LLOQ), 1.50 ng/mL, 80.0 ng/mL, and 375 ng/mL).
Recoveries were calculated according to the following formula: […]
To assess the reinjection reproducibility, an analyte batch containing a standard curve and QC samples was reinjected after being kept at room temperature for 161.5 hours.

[2] = test system: PCG/RSC of adult female Sprague Dawley rats; details: 3 hours after a single intraperitoneal injection (Jevtovic-Todorovic 2000); cited from earlier work
[3] = test system: subjects with MDD at imminent risk for suicide; details: double-blind phase; all randomized analysis set; N=36
Text: Among 68 randomized subjects, 66 were included in the safety analysis set (defined as receiving at least one dose of study medication in the double-blind phase). […] All safety subjects (N=66) were included in the intent-to-treat (ITT) analysis set (defined as receiving at least one dose of study medication during the double-blind phase and having both the baseline and the Day 1, 4-hour postdose evaluation for the MADRS total score). Forty-nine subjects were included in the safety (FU) analysis set (defined as all subjects who have at least 1 visit during the follow up phase).

[4] = Pharmacokinetics of intranasal esketamine 28, 56, 84 mg in healthy subjects (Example 9); details: for AUClast / AUC∞ / Cmax / t1/2 / Metabolite/Parent Ratio AUClast / Metabolite/Parent Ratio AUC∞ / Metabolite/Parent Ratio Cmax: mean; for Tmax: median; for Metabolite/Parent Ratio AUClast / Metabolite/Parent Ratio AUC∞ / Metabolite/Parent Ratio Cmax: noresketamine to esketamine
Experimental: This was an open-label, single-center study. The subjects were healthy Caucasian men and women, 20 to 55 years of age, inclusive. […] The solution consisted of:
Pharmacokinetic blood samples for measurement of esketamine and noresketamine concentrations in plasma were collected from predose until up to 24 hours after each intranasal esketamine regimen on Day 1 of each period.
Blood samples (4 mL each) for determination of esketamine and noresketamine plasma concentrations were collected into the appropriate collection tube (e.g., Vacutainer®) at timepoints 0.00, 0.12, 0.20, 0.37, 0.53, 0.67, 0.83, 1.00, 1.25, 1.50, 2.00, 3.00, 4.00, 6.00, 9.00, 12.00, 18.00, and 24.00 h. The total amount of blood to be drawn for clinical laboratory tests and PK evaluations is approximately 327 mL.
Plasma samples were analyzed for esketamine and noresketamine concentrations using the validated, specific and sensitive liquid chromatography coupled to tandem mass spectrometry (LC-MS/MS) achiral method of Example 8.
Serial PK blood samples (4 mL each) were collected for a 24-hour period from each subject (Periods 1, 2, and 3).
The following key parameters of esketamine and noresketamine in plasma were calculated using noncompartmental methods and actual sampling times: Cmax, tmax, AUClast, AUC∞, t1/2,λ, and λz.

MDD/TRD subjects = details: 52-week safety study in MDD/TRD subjects (Berman et al., 2011); cited from earlier work
[5] = freeze (−20° C.)/thaw (ice-water bath)
[6] = freeze (−20° C.)/thaw (room temperature)
[7] = stock solutions at room temperature under white light
[8] = noresketamine in plasma after intranasal esketamine 28 mg (Treatment A)
[9] = noresketamine in plasma after intranasal esketamine 56 mg (Treatment B)
[10] = noresketamine in plasma after intranasal esketamine 84 mg (Treatment C)

## CNC1(c2ccccc2Cl)CCCCC1=O (racemic) [ketamine, reference compound]
[1]; [5]
  QC sample freeze/thaw stability: 3 freeze (−20° C.)/thaw (ice-water bath) cycles
[1]; [6]
  QC sample freeze/thaw stability: 3 freeze (−20° C.)/thaw (room temperature) cycles
[1]
  QC sample long-term storage stability: 1552 days at −20 °C
  QC sample bench-top stability: 68.5 hours at room temp
  Stock solution stability (spike solutions): 610 days at −20 °C for ketamine/norketamine spike solutions
  Processed sample stability: 146.5 hours at room temperature
  Whole Blood Stability: 120 minutes at room temperature and in an ice-water bath (0-4° C.)
[1]; [7]
  Stock solution stability: 6 h
[1]; stock solutions at −20° C.
  Stock solution stability: 15100 h
[2]
  ED50-value for the induction of neuronal vacuolation in the PCG/RSC: 47.5 mg/kg body weight

## CN[C@]1(c2ccccc2Cl)CCCCC1=O [Esketamine 84 mg]
[3]
  Withdrawn: Adverse event, % of subjects: (13.9%)
  Withdrawn: Adverse event, number of subjects: 5
  Withdrawn: Lack of Efficacy, % of subjects: (2.8%)
  Withdrawn: Lack of Efficacy, number of subjects: 1

## NC1(c2ccccc2Cl)CCCCC1=O (stereo not shown) [Norketamine]
[1]; [5]
  QC sample freeze/thaw stability: 3 freeze (−20° C.)/thaw (ice-water bath) cycles
[1]; [6]
  QC sample freeze/thaw stability: 3 freeze (−20° C.)/thaw (room temperature) cycles
[1]
  QC sample long-term storage stability: 1552 days at −20 °C
  QC sample bench-top stability: 68.5 hours at room temp
  Stock solution stability (spike solutions): 610 days at −20 °C for ketamine/norketamine spike solutions
  Processed sample stability: 146.5 hours at room temperature
  Whole Blood Stability: 120 minutes at room temperature and in an ice-water bath (0-4° C.)
[1]; [7]
  Stock solution stability: 6 h
[1]; stock solutions at −20° C.
  Stock solution stability: 15100 h

## NC1(c2ccccc2Cl)CCCCC1=O (stereo not shown) [noresketamine]
[4]; 28, 56, 84 mg
  Mean ratio of noresketamine to esketamine, AUClast: 3.62 to 4.32
  Mean ratio of noresketamine to esketamine, AUC∞: 3.80 to 4.46
  Mean ratio of noresketamine to esketamine, Cmax: 1.96 to 2.55
[4]; healthy subjects, intranasal esketamine 28, 56, 84 mg
  Median tmax of noresketamine, range across regimens: 1.25 to 1.5 h
[4]; noresketamine in plasma
  AUC (AUClast and AUC∞) variability: 17.0% to 21.3
  Between-subject variability for Cmax: 25.8% to 33.7
[4]; [8]
  AUClast: 454 ng·h/mL
  AUC∞: 508 ng·h/mL
  Cmax: 92.8 ng/mL
  t1/2: 7.74 h
  Tmax: 1.25 h
[4]; [9]
  AUClast: 851 ng·h/mL
  AUC∞: 924^c h*ng/mL
  Cmax: 154 ng/mL
  t1/2: 7.71^c h
  Tmax: 1.50 h
[4]; [10]
  AUClast: 1287 ng·h/mL
  AUC∞: 1392^b h*ng/mL
  Cmax: 241 ng/mL
  t1/2: 7.48^b h
  Tmax: 1.50 h
[4]; esketamine 28 mg (Treatment A)
  Metabolite/Parent Ratio AUClast: 3.62
  Metabolite/Parent Ratio AUC∞: 3.80^b
  Metabolite/Parent Ratio Cmax: 1.96
[4]; esketamine 56 mg (Treatment B)
  Metabolite/Parent Ratio AUClast: 4.07
  Metabolite/Parent Ratio AUC∞: 4.22^b
  Metabolite/Parent Ratio Cmax: 2.28
[4]; esketamine 84 mg (Treatment C)
  Metabolite/Parent Ratio AUClast: 4.32
  Metabolite/Parent Ratio AUC∞: 4.46^d
  Metabolite/Parent Ratio Cmax: 2.55
[4]; noresketamine, esketamine 28, 56, 84 mg
  Mean t1/2, range across regimens: 7.48 to 7.74 h

## OCCOCCN1CCN(C2=Nc3ccccc3Sc3ccccc32)CC1 [quetiapine]
MDD/TRD subjects
  Rate of discontinuation due to adverse events: 23.7%
